# Measured values published in patent US20100298144A1, “HERBICIDAL COMBINATION” (BAYER CROPSCIENCE AG, priority 2008, published 2010).
# Test system: Polygonum convolvulus
# Assay: Post-emergence action against weeds, greenhouse pot test, visual scoring
# Format: in vivo
# Conditions: 11 days after application, 0%=no control, 100%=complete control
# Description: Seeds or rhizome pieces of monocotyledonous and dicotyledonous weeds were placed in sandy loam in plastic pots, covered with soil and cultivated in a greenhouse under good growth conditions. Three weeks after sowing, the test plants were treated at the 2-4 leaf stage. The compounds according to the invention, formulated as wettable powders or as emulsion concentrates, were sprayed onto the green parts of the plants at various dosages using a water application rate of from 100 to 800 I/ha (converted). After the test plants had been left to stand in the greenhouse for 10 to 28 days under optimum growth conditions, the effect of the preparations was scored visually in comparison to untreated controls.
# 0%=no control 100%=complete control
compound,measurement,setting,value
"CP(=O)(O)CCC(N)C(=O)O (stereo not shown) [Compound B1-8, glufosinate-ammonium]",Polygonum convolvulus Control in %,"Table 1, 150 g of ai/ha",20%
"sodium salt of 2-iodo-N-[(4-methoxy-6-methyl-1,3,5-triazin-2-yl)carbamoyl]benzenesulfonamide [Compound A-2]",Polygonum convolvulus Control in %,"Table 1, 2.5 g of ai/ha",10%
same,Polygonum convolvulus Control in %,"Table 2, 2.5 g of ai/ha",20%
glyphosate-ammonium [Compound B1-15],Polygonum convolvulus Control in %,"Table 2, 360 g of ai/ha",55%
